Publication PMC3836994, “Killer Bee Molecules: Antimicrobial Peptides as Effector Molecules to Target Sporogonic Stages of Plasmodium” (PLoS Pathogens, 2013)
Non-standard residues stand in square brackets, D forms with d. No end group written: not given here. pGlu = O=C1CC[C@@H](C(=O)O)N1

Legend:
[1] = tested on: Anopheles gambiae Sua 4.0 cells; assay: Sua 4.0 mosquito cell viability (erythrosin B exclusion); format: cell-based; set-up: dose or concentration left out as unconfirmed; conditions: after 48 h culture; for Average viability of cells (3 replicates), peptide: erythrosin B exclusion, 100 cells in triplicate wells; for Reduction in cell viability: versus control
Method: (§1) To establish potential effects of AMPs on mosquito cells, the An. gambiae Sua 4.0 cell line was used. This facilitated an initial high-throughput screening and provided insights into AMP toxicity, mode of action (lytic or other) and speed of action. Sua 4.0 cells were maintained at 27°C in Schneider's insect medium supplemented with 10% FBS (foetal bovine serum) in T25 culture flasks (Fisher, UK).
(§2) Each AMP was tested separately to establish if it affected cell viability and growth. […] Cells were maintained for 3, 6, 24 or 48 h, after which they were resuspended and a sub-sample from duplicate wells counted using a haemocytometer. To establish cell viability after 48 h (whether simply arrested in development or non-viable), resuspended cells were added to an equal volume of 5% erythrosin B vital dye and viable cells excluding the stain were counted. The viability of 100 cells in triplicate wells was recorded. Each AMP assay was performed in triplicate and included a negative control minus the peptide (5 µl of water alone added to the medium) and a further control of 5 µl of 10% SDS (sodium dodecyl sulphate) substituted for the AMP as this causes 100% cell lysis.

[2] = tested on: P. berghei ookinetes; assay: P. berghei ookinete viability in vitro (erythrosin B); format: cell-based, Plasmodium berghei; conditions: for Average ookinete viability (3 reps), peptide / Reduction in ookinete viability: 30 min; for Reduction in ookinete viability: versus control
Method: Our primary aim was to target parasites in mosquitoes before they cross the midgut wall, therefore AMPs were first assessed for their ability to kill ookinetes in vitro. […] Ookinete cultures of P. berghei were established from gametocytaemic blood as previously described. Parasites were enriched using cold 0.17M ammonium chloride after 18 h of culture and washed thoroughly with PBS (phosphate buffered saline). Parasites were seeded in triplicate wells of a 96-well microtitre plate at a density of 1×10^5/ml in a volume of 47.5 µl Schneider's insect medium (Invitrogen) with 2.5 µl of the test AMP (final concentration of 50 µM). Ookinetes were incubated for 30 min in conjunction with triplicate control wells containing medium with 2.5 µl of water instead of AMP. A sub-sample of parasites was then added to an equal volume of 5% erythrosin B to assess viability (150 ookinetes in total, taken from 3 wells). Each of the 33 AMPs was screened in this way and assays were performed 3 times. AMPs displaying a high degree of toxicity (>90% of ookinetes displaying erythrosin B staining) underwent further ookinete assays using a concentration of 100 µM AMP. To assess synergistic effects, combinations of two peptides were also tested at a concentration of 25 µM per AMP, in the assay described above.

[3] = tested on: An. gambiae (Mali strain); assay: Mosquito longevity after blood feeds containing AMP; format: in vivo, Anopheles gambiae; conditions: for Significance of effect on longevity over 10 days: 50 µM AMP, Kaplan-Meier, Wilcoxon, peptide vs control; for Percent alive, peptide: over 10 days, 50 µM AMP in human blood, feeds on days 0 and 7, 3 or 4 replicates
Method: (§3) Female An. gambiae (Mali strain, 3–5 days old) were used to establish the effects of AMPs on mosquito longevity and fecundity in the absence of confounding factors introduced with parasite infection. Two hundred 3–6 day old females were fed on human O+ whole blood supplemented with 50 µM AMP (or water control, 1 ml total volume) via feeding chambers of a Hemotek membrane feeding system. Fully engorged mosquitoes were randomly moved into four separate cages, each containing 25 mosquitoes, to facilitate monitoring. Mortality rates were recorded daily for a 10-day period, and oviposition sites were provided on the second and third night post-feeding. A second blood feed containing the same AMP was administered 7 days later to mimic the likelihood that mosquitoes would feed at least twice in the field during the development of sporogonic stages of the malaria parasite. Oviposition sites were again provided to assess fecundity through the number of eggs laid as an average per surviving mosquito. Assays for each AMP were repeated in triplicate on separate generations of mosquitoes. Due to egg retention under experimental conditions, egg production is best measured by dissecting mosquitoes that have not been provided with an oviposition site. However, this is not a feasible method of determining fecundity when longevity is also being measured.

[4] = tested on: Anopheles gambiae Sua 4.0 cells; assay: Sua 4.0 mosquito cell growth (cell counts); format: cell-based; conditions: 25 µM AMP; for Average number of cells over 3 replicates, peptide: seeded 30×10^4/ml, mean of 3 experiments
Method: as §1, §2

[5] = tested on: An. gambiae (Mali strain); assay: Mosquito oviposition after blood feed containing AMP; format: in vivo, Anopheles gambiae; conditions: for Significance of effect on oviposition: 50 µM AMP, one-way ANOVA, peptide vs control; for Mean no. of eggs laid per mosquito, peptide: after first feed with 50 µM AMP, eggs laid over two nights, averaged per surviving mosquito, 3 or 4 replicates
Method: as §3

[6] = tested on: P. berghei; assay: P. berghei infections in Anopheles stephensi (oocyst prevalence and intensity); format: in vivo, Plasmodium berghei; conditions: for Prevalence (proportion of infected mosquitoes), peptide: 50 µM peptide in gametocytaemic mouse blood fed to An. stephensi; for Intensity (mean number of oocysts, range in parentheses), peptide: 50 µM peptide, An. stephensi
Method: To assess the effects of AMPs on parasites in vivo, mouse blood containing P. berghei gametocytes was obtained by cardiac puncture and 475 µl was rapidly mixed with 25 µl (50 µM final concentration) of AMP. This mixture was fed to 100 nulliparous 3–5 day old female An. stephensi. A further 475 µl of blood from the same infection was mixed with 25 µl of distilled water to act as a control. Mosquitoes were maintained at 19°C for optimum parasite development. Between 30 and 50 mosquitoes were dissected after 10 days. Mosquito wing length, numbers of retained eggs and oocysts were recorded in triplicate experiments carried out on different mosquito cohorts.

[7] = tested on: P. falciparum; assay: Field P. falciparum from gametocyte carriers membrane-fed to An. gambiae (Mali); format: in vivo, Plasmodium falciparum; conditions: Replicate 1, 50 µM; for Oocyst prevalence (oocyst positive mosquitoes), peptide: blood of gametocyte carriers, progeny of field An. gambiae; for Oocyst intensity (mean number of oocysts per gut, range in parentheses), peptide: field parasites and mosquitoes
Description: Nyaganabougou, a village approximately 60 km south-west of the Malian capital, Bamako, was used as a site for the source of donors of malaria-infected blood. Due to its proximity to the river Niger, which provides perennial mosquito breeding sites, Nyaganabougou has high numbers of infected individuals and an extended transmission season. Mosquitoes used to establish the An. gambiae Mali colony used for this study were originally collected in the village of Kenieroba (a distance of 15 km from Nyaganabougou). Potential male and female gametocyte carriers between the ages of 6–10 were screened by thick smear and parasite species and density determined by local staff, led by Saibou Doumbia.
Gametocyte carriers were taken to the Malaria Research and Training Centre at the University of Bamako for blood donation. Approximately 4 ml of blood was extracted from carriers and immediately divided into 3 Hemotek membrane feeders for testing 2 separate AMPs and one control for each carrier. Peptides were added to 950 µl of gametocytaemic blood for a final concentration of 50 µM. All parasite-positive individuals were subsequently treated appropriately for parasites and associated symptoms, as determined by, and carried out by, local health workers in Nyaganabougou.
Approximately 120 adult female An. gambiae (Mali, 4–7 days old) were starved overnight, and allowed to feed on the gametocytaemic blood/AMP mix for 30 min. Engorged females were maintained on 10% glucose with 0.05% PABA for 8 days before dissection. No oviposition sites were provided so that fecundity could be measured by determining retained eggs. Mosquito wing length, numbers of retained eggs and oocysts were recorded, and triplicate peptide experiments were carried out on different mosquito cohorts, using blood from different donors. Where possible, a minimum of 50 mosquitoes were dissected for each condition.

[8] = 50 µM of single peptide, n = 150 ookinetes per treatment per replicate

Molecule	Average viability of cells (3 replicates), peptide [1]	Reduction in cell viability [1]	Average ookinete viability (3 reps), peptide [2, 8]	Reduction in ookinete viability ([2]; 50 µM of single peptide)	Average ookinete viability (3 reps), peptide ([2]; 100 µM of single peptide)	Reduction in ookinete viability ([2]; 100 µM of single peptide)	Significance of effect on longevity over 10 days [3]	Percent alive, peptide [3]	Significance of effect on oviposition [5]	Mean no. of eggs laid per mosquito, peptide [5]	Prevalence (proportion of infected mosquitoes), peptide ([6]; Replicate 1)	Intensity (mean number of oocysts, range in parentheses), peptide ([6]; Replicate 1)	Prevalence (proportion of infected mosquitoes), peptide ([6]; Replicate 2)	Intensity (mean number of oocysts, range in parentheses), peptide ([6]; Replicate 2)	Prevalence (proportion of infected mosquitoes), peptide ([6]; Replicate 3)	Intensity (mean number of oocysts, range in parentheses), peptide ([6]; Replicate 3)	Oocyst prevalence (oocyst positive mosquitoes), peptide [7]	Oocyst intensity (mean number of oocysts per gut, range in parentheses), peptide [7]	other results
CC[C@H](C)[C@H](N)C(=O)N[C@@H](CC(C)C)C(=O)N1CCC[C@H]1C(=O)N[C@@H](Cc1c[nH]c2ccccc12)C(=O)N[C@@H](CCCCN)C(=O)N[C@@H](Cc1c[nH]c2ccccc12)C(=O)N1CCC[C@H]1C(=O)N[C@@H](Cc1c[nH]c2ccccc12)C(=O)N[C@@H](Cc1c[nH]c2ccccc12)C(=O)N1CCC[C@H]1C(=O)N[C@@H](Cc1c[nH]c2ccccc12)C(=O)N[C@@H](CCCNC(=N)N)C(=O)N[C@@H](CCCNC(=N)N)C(N)=O [Indolicidin]	61%	36%																	
CKQSCSFGPFTFVCDGNTK (also: bicyclic or more (positions not given here)) [Duramycin, A lantibiotic from bacteria, 19 aa (Sigma D3168)]	0%	100%	11%	88%	1%	99%	N/S	84%	N/S	39	80% (50)	17 (0–114)	88% (50)	59 (0–294)	98% (50)	135 (0–319)			Reduction in cell number (compared to control) ([4]; 3 hrs in culture): 42%; Average number of cells over 3 replicates, peptide ([4]; 3 hrs in culture, haemocytometer count of duplicate wells): 180000 mL⁻¹; Reduction in cell number (compared to control) ([4]; 24 hrs in culture): 73%; Average number of cells over 3 replicates, peptide ([4]; 24 hrs in culture): 130000 mL⁻¹; Reduction in cell number (compared to control) ([4]; 48 hrs in culture): 88%; Average number of cells over 3 replicates, peptide ([4]; 48 hrs in culture): 90000 mL⁻¹
GLLKRIKTLL [Anoplin, 10 aa peptide isolated from the solitary wasp, homology to Mastoparan X]			10%	89%	2%	98%	N/S	80%	N/S	36	66% (44)	21 (0–147)	98% (50)	74 (0–580)	100% (50)	177 (1–666)			
RRWQWRMKKLG [Lactoferricin B, Product of pepsin cleavage of bovine lactoferrin]																	46% (37)	2 (0–17)	
Scorpine																			Efficacy against malaria parasites (in words) ([2]; in our hands, rodent or human malaria, test not specified further, actual concentration may have been lower than expected): not effective against rodent or human malaria
[pGlu]GMIGTLTSKRIKQ [Levitide, Isolated from skin secretions of Xenopus laevis]																	8% (60)	<1 (0–1)	
